Test results from patent US20170008888A1 (KYORIN PHARMACEUTICAL CO., LTD., priority 2014, published 2017).
Marks after values point to notes of the source that are not given here.

System: Imiquimod-induced psoriasis mouse model
Assay: Imiquimod (IMQ)-induced acute model of psoriasis in mouse: skin thickness, erythema, scaling
Assay type: in vivo, mouse (Balb/c)
Description: Material and methods for the IMQ study were adapted from van der Fits et al. J Immunol., 2009, 182: 5836-5845. Eight week old male Balb/c mice (Harlan) received a daily topical dose of 62.5 mg 5% IMQ cream (Aldara™, Medicis) equivalent to 3.125 mg IMQ, on the shaved back (approximately 2×3.5 cm patch) and dorsal surface of the right ear for 6 consecutive days. Sham control mice were treated similarly with control cream (Hydrous Emulsified Base, HEB, Cream, Fagron). Treatments were administered by group as indicated in Table 1 below prior to daily application of IMQ (QD and morning dose of BID regimens), n=10 for all groups. […] Body weights and scoring of induced clinical disease were performed after dosing (Days 1-7) but prior to IMQ application (Days 1-6) on Days 1 (baseline), 3, 4, 6, 8. Mice were sacrificed on Day 8 and treated back skin tissue collected and divided for fixation for histopathology (a 12 mm punch in mid-back) the remainder flash frozen; right (IMQ) and left (control) ears, spleen (after wet weight) and lung were also individually collected and flash frozen, and stored at −70° C. for subsequent biochemical analyses. Statistics were performed using one-way ANOVA with Dunnett's post-hoc test comparing treated groups to the vehicle group, using InStat software (GraphPad, La Jolla, Calif.).
The severity of clinical disease was assessed by
1) skin thickness dial gauge micrometer measurements (duplicate) of the ears and the dorsal skin at the midline of the back (equal to double true measure of dorsal skin thickness)
2) erythema and scaling, independently scored on a scale from 0-4: 0=none, 1=slight, 2=moderate, 3=marked, 4=very marked with intermediate increments of 0.5 allowed.
Clinical disease assessments included erythema, scaling, skin thickness and cumulative disease severity scores and the change in skin thickness of the ears and dorsal back skin over time compared to baseline measurements (Tables 19 and 20). Body weights of the mice were measured at baseline and at end of study, and there were no significant changes in weight in any treatment group during the study (data not shown).

For `CCOc1cc(C(=O)N2CCCN(C)CC2)ccc1Nc1cc2c(cn1)N(C)C(=O)c1ccccc1N2C` [Compound 8], the “Clinical Score Erythema (0-4), AVG Score” value (Day 1 (baseline), 60 mpk BID) was 0, the “Clinical Score Scaling (0-4), AVG Score” value (Day 1 (baseline), 60 mpk BID) was 0 and the “% Mean DORSAL BACK THICKNESS versus day 1, AVG” value (Day 3, 60 mpk BID) was 33.49%. For the same molecule, the “% Mean LEFT EAR THICKNESS [Control] versus day 1, AVG” value (from here on “% Mean LEFT EAR THICKNESS”) (Day 3, 60 mpk BID) was −5.16%, the “% Mean RIGHT EAR THICKNESS [IMQ] versus day 1, AVG” value (“% Mean RIGHT EAR THICKNESS” for short) (Day 3, 60 mpk BID) was 0.09% and the “Clinical Score Erythema (0-4), AVG Score” value (Day 3, 60 mpk BID) was 1.25. The “Clinical Score Scaling (0-4), AVG Score” value (Day 3, 60 mpk BID) was 0.5, the “% Mean DORSAL BACK THICKNESS versus day 1, AVG” value (Day 4, 60 mpk BID) was 43.51% and the “% Mean LEFT EAR THICKNESS” value (Day 4, 60 mpk BID) was −6.51%. For the same molecule, the “% Mean RIGHT EAR THICKNESS” value (Day 4, 60 mpk BID) was 5.74%, the “Clinical Score Erythema (0-4), AVG Score” value (Day 4, 60 mpk BID) was 1.4 and the “Clinical Score Scaling (0-4), AVG Score” value (Day 4, 60 mpk BID) was 0.6. For the same molecule, the “% Mean DORSAL BACK THICKNESS versus day 1, AVG” value (Day 6, 60 mpk BID) was 74.47** %, the “% Mean LEFT EAR THICKNESS” value (Day 6, 60 mpk BID) was 1.15% and the “% Mean RIGHT EAR THICKNESS” value (Day 6, 60 mpk BID) was 36.67* %. For the same molecule, the “Clinical Score Erythema (0-4), AVG Score” value (Day 6, 60 mpk BID) was 2.15, the “Clinical Score Scaling (0-4), AVG Score” value (Day 6, 60 mpk BID) was 2.8 and the “% Mean DORSAL BACK THICKNESS versus day 1, AVG” value (Day 8, 60 mpk BID) was 32.42^NS %. The “% Mean LEFT EAR THICKNESS” value (Day 8, 60 mpk BID) was −2.25%, the “% Mean RIGHT EAR THICKNESS” value (Day 8, 60 mpk BID) was 33.58** % and the “Clinical Score Erythema (0-4), AVG Score” value (Day 8, 60 mpk BID) was 1.95. The “Clinical Score Scaling (0-4), AVG Score” value (Day 8, 60 mpk BID) was 1.7.
